Results published in patent US10030006B2, “Coumarin based Hsp90 inhibitors with urea and ether substituents” (University of Kansas, priority 2013, dated 2018).
Where two headings read alike, the source gives them in different places. Each block holds one compound with its values, some of them ahead of it.

Key:
[1] = tested on: MCF-7 (estrogen receptor positive breast cancer cells); assay: Anti-proliferation assay (MTS/PMS, 72 h), MCF-7; type: cell-based
Experimental: (§1) Cells were maintained in a 1:1 mixture of Advanced DMEM/F12 (Gibco) supplemented with non-essential amino acids, L-glutamine (2 mM), streptomycin (500 μg/mL), penicillin (100 units/mL), and 10% FBS. Cells were grown to confluence in a humidified atmosphere (37° C., 5% CO2), seeded (2000/well, 100 μL) in 96-well plates, and allowed to attach overnight. Compound at varying concentrations in DMSO (1% DMSO final concentration) was added, and cells were returned to the incubator for 72 h. At 72 h, the number of viable cells was determined using an MTS/PMS cell proliferation kit (Promega) per the manufacturer's instructions. Cells incubated in 1% DMSO were used at 100% proliferation, and values were adjusted accordingly. IC50 values were calculated from separate experiments performed in triplicate using GraphPad Prism.
(§2) The anti-proliferative activity of these compounds is evaluated against two breast cancer cell lines, SKBr3 (estrogen receptor negative, Her2 over-expressing breast cancer cells) and MCF-7 (estrogen receptor positive breast cancer cells).

[2] = tested on: SKBr3 (estrogen receptor negative, Her2 over-expressing breast cancer cells); assay: Anti-proliferation assay (MTS/PMS, 72 h), SKBr3; type: cell-based
Experimental: as §1, §2

[3] = Table 3, cycloamine analogues, read-out: MCF-7
[4] = Table 3, cycloamine analogues, read-out: SKBr3
[5] = Table 9, non-aryl ureas, Breast Cancer, read-out: IC50 MCF-3
[6] = Table 9, non-aryl ureas, Breast Cancer, read-out: IC50 SKBr3
[7] = Homo sapiens, MCF7, Table 8, biphenyl ureas, Breast Cancer, read-out: IC50 MCF-3
[8] = Homo sapiens, SK-BR-3, Table 8, biphenyl ureas, Breast Cancer, read-out: IC50 SKBr3
[9] = Homo sapiens, MCF7, Table 1, modified benzamide coumarin derivatives, read-out: MCF-7
[10] = Homo sapiens, MCF7, Table 2, modified benzamide and biphenylamide derivatives (in μM), read-out: MCF-7
[11] = Table 10, modified initial novobiocin analogs, read-out: SkBr3, IC50
[12] = Homo sapiens, SK-BR-3, Table 1, modified benzamide coumarin derivatives, read-out: SKBr3
[13] = Homo sapiens, SK-BR-3, Table 2, modified benzamide and biphenylamide derivatives (in μM), read-out: SKBr3
[14] = Homo sapiens, MCF7, Table 4, alkylamino analogues, read-out: MCF-7
[15] = Homo sapiens, SK-BR-3, Table 4, alkylamino analogues, read-out: SKBr3

IC50 [1, 3]: 1.65 ± 0.11 µM | IC50 [2, 4]: 0.74 ± 0.01 µM
SMILES: CC(=O)Oc1ccc(C(=O)Nc2cc3ccc(OCC4CCCN(C)C4)c(C)c3oc2=O)cc1CC=C(C)C (stereo not drawn)

IC50 [1, 3]: 1.88 ± 0.45 µM | IC50 [2, 4]: 0.88 ± 0.09 µM
SMILES: CC(=O)Oc1ccc(C(=O)Nc2cc3ccc(OCC4CCN(C)C4)c(C)c3oc2=O)cc1CC=C(C)C (stereo not drawn)

IC50 [1, 3]: 0.71 ± 0.03 µM | IC50 [2, 4]: 0.64 ± 0.06 µM
SMILES: CC(=O)Oc1ccc(C(=O)Nc2cc3ccc(OCCC4CCCCN4)c(C)c3oc2=O)cc1CC=C(C)C (stereo not drawn)

SMILES: CC(=O)Oc1ccc(C(=O)Nc2cc3ccc(OCC4CCCNC4)c(C)c3oc2=O)cc1CC=C(C)C (stereo not drawn)
IC50 [1, 3]: 0.82 ± 0.07 µM | IC50 [2, 4]: 0.62 ± 0.04 µM

IC50 [1, 3]: 0.71 ± 0.03 µM | IC50 [2, 4]: 0.64 ± 0.06 µM
SMILES: CC(C)=CCc1cc(C(=O)Nc2cc3ccc(OCCC4CCCCN4)c(C)c3oc2=O)ccc1O (stereo not drawn)

IC50 [1, 3]: 2.64 ± 0.45 µM | IC50 [2, 4]: 1.3 ± 0.63 µM
SMILES: CC(C)=CCc1cc(C(=O)Nc2cc3ccc(OCC4CCCN(C)C4)c(C)c3oc2=O)ccc1O (stereo not drawn)

SMILES: CC(C)=CCc1cc(C(=O)Nc2cc3ccc(OCC4CCCNC4)c(C)c3oc2=O)ccc1O (stereo not drawn)
IC50 [1, 3]: 0.79 ± 0.1 µM | IC50 [2, 4]: 0.6 ± 0.01 µM

IC50 [1, 3]: 1.55 ± 0.04 µM | IC50 [2, 4]: 0.92 ± 0.56 µM
SMILES: CC(C)=CCc1cc(C(=O)Nc2cc3ccc(OCC4CCN(C)C4)c(C)c3oc2=O)ccc1O (stereo not drawn)

IC50 [1, 3]: 0.93 ± 0.21 µM | IC50 [2, 4]: 0.82 ± 0.02 µM
SMILES: CC(C)=CCc1cc(C(=O)Nc2cc3ccc(OCCCN4CCNCC4)c(C)c3oc2=O)ccc1O

IC50 [1, 5]: 1.05 ± 0.07 µM | IC50 [2, 6]: 1.04 ± 0.07 µM
SMILES: Cc1c(OC2CCN(C)CC2)ccc2cc(NC(=O)NCc3ccc(Cl)cc3)c(=O)oc12

IC50 [1, 5]: 0.65 ± 0.11 µM | IC50 [2, 6]: 0.68 ± 0.06 µM
SMILES: COc1ccc(CNC(=O)Nc2cc3ccc(OC4CCN(C)CC4)c(C)c3oc2=O)cc1

IC50 [1, 5]: 0.55 ± 0.02 µM | IC50 [2, 6]: 0.56 ± 0.07 µM
SMILES: Cc1ccc(CNC(=O)Nc2cc3ccc(OC4CCN(C)CC4)c(C)c3oc2=O)cc1

IC50 [1, 5]: 0.38 ± 0.04 µM | IC50 [2, 6]: 0.23 ± 0.08 µM
SMILES: Cc1c(OC2CCN(C)CC2)ccc2cc(NC(=O)NCc3ccc(Oc4ccccc4)cc3)c(=O)oc12

IC50 [1, 7]: 0.5 µM | IC50 [2, 8]: 0.44 µM
SMILES: Cc1ccc(NC(=O)Nc2cc3ccc(OC4CCN(C)CC4)c(C)c3oc2=O)cc1-c1cccc(Cl)c1 [CH3, Cl, 1-(3′-chloro-6-methyl-[1,1′-biphenyl]-3-yl)-3-(8-methyl-7-((1-methylpiperidin-4-yl)oxy)-2-oxo-2H-chromen-3-yl)urea]

IC50 [1, 7]: 0.21 µM | IC50 [2, 8]: 0.25 µM
SMILES: COc1cccc(-c2cc(NC(=O)Nc3cc4ccc(OC5CCN(C)CC5)c(C)c4oc3=O)ccc2C)c1 [CH3, OMe, 1-(3′-methoxy-6-methyl-[1,1′-biphenyl]-3-yl)-3-(8-methyl-7-((1-methylpiperidin-4-yl)oxy)-2-oxo-2H-chromen-3-yl)urea]

IC50 [1, 9]: 1.09 ± 0.1 µM | IC50 [1, 10]: 1.09 ± 0.1 µM | IC50 ([1]; Homo sapiens, MCF7, amide versus urea linkage, read-out: IC50 for MCF-3): 1.09 µM
SMILES: CC(C)=CCc1cc(C(=O)Nc2cc3ccc(OC4CCN(C)CC4)c(C)c3oc2=O)ccc1O [Compound 2]

IC50 [2, 11]: 0.17 ± 0.01 µM
SMILES: Cc1c(OC2CCN(C)CC2)ccc2cc(NC(=O)Nc3ccc(Cl)cc3)c(=O)oc12 [Compound 8]

IC50 [2, 11]: 0.31 ± 0.09 µM
SMILES: Cc1ccc(NC(=O)Nc2cc3ccc(OC4CCN(C)CC4)c(C)c3oc2=O)cc1C [Compound 10]

IC50 [2, 11]: 0.21 ± 0.06 µM
SMILES: Cc1c(OCCC2CCCCN2)ccc2cc(NC(=O)Nc3ccc(Cl)cc3)c(=O)oc12 (stereo not drawn) [Compound 11]

IC50 [1, 9]: 1.58 ± 0.09 µM | IC50 [2, 12]: 1.41 ± 0.2 µM
SMILES: COc1ccc(C(=O)Nc2cc3ccc(OC4CCN(C)CC4)c(C)c3oc2=O)cc1CC=C(C)C [Compound 16, 4-methoxy-N-(8-methyl-7-(1-methylpiperidin-4-yloxy)-2-oxo-2H-chromen-3-yl)-3-(3-methylbut-2-enyl)benzamide]

SMILES: CCCCOc1ccc(C(=O)Nc2cc3ccc(OC4CCN(C)CC4)c(C)c3oc2=O)cc1CC=C(C)C [Compound 17, 4-butoxy-N-(8-methyl-7-(1-methylpiperidin-4-yloxy)-2-oxo-2H-chromen-3-yl)-3-(3-methylbut-2-enyl)benzamide]
IC50 [1, 9]: 1.44 ± 0.05 µM | IC50 [2, 12]: 1.4 ± 0.07 µM

IC50 [1, 9]: 1.12 ± 0.16 µM | IC50 [2, 12]: 1.4 ± 0.11 µM
SMILES: C#CCOc1ccc(C(=O)Nc2cc3ccc(OC4CCN(C)CC4)c(C)c3oc2=O)cc1CC=C(C)C [Compound 18, N-(8-methyl-7-(1-methylpiperidin-4-yloxy)-2-oxo-2H-chromen-3-yl)-3-(3-methylbut-2-enyl)-4-(prop-2-ynyloxy)benzamide]

IC50 [1, 10]: 0.72 ± 0.08 µM | IC50 [2, 13]: 0.33 µM
SMILES: CC(C)=CCc1cc(C(=O)Nc2cc3ccc(OC4CCN(C)CC4)c(C)c3oc2=O)ccc1OCCN(C)C [Compound 23, 4-(2-(dimethylamino)ethoxy)-N-(8-methyl-7-(1-methylpiperidin-4-yloxy)-2-oxo-2H-chromen-3-yl)-3-(3-methylbut-2-enyl)benzamide]

IC50 [1, 10]: 0.46 ± 0.05 µM | IC50 [2, 13]: 0.25 ± 0.02 µM
SMILES: CC(C)=CCc1cc(C(=O)Nc2cc3ccc(OC4CCN(C)CC4)c(C)c3oc2=O)ccc1OCCCN(C)C [Compound 24, 4-(3-(dimethylamino)propoxy)-N-(8-methyl-7-(1-methylpiperidin-4-yloxy)-2-oxo-2H-chromen-3-yl)-3-(3-methylbut-2-enyl)benzamide]

IC50 [1, 10]: 0.47 ± 0.081 µM | IC50 [2, 13]: 0.21 µM
SMILES: CC(C)=CCc1cc(C(=O)Nc2cc3ccc(OC4CCN(C)CC4)c(C)c3oc2=O)ccc1OC1CCN(C)CC1 [Compound 25, N-(8-methyl-7-(1-methylpiperidin-4-yloxy)-2-oxo-2H-chromen-3-yl)-3-(3-methylbut-2-enyl)-4-(1-methylpiperidin-4-yloxy)benzamide]

IC50 [1, 14]: 0.98 ± 0.35 µM | IC50 [2, 15]: 0.72 ± 0.34 µM
SMILES: CCNCCCOc1ccc2cc(NC(=O)c3ccc(O)c(CC=C(C)C)c3)c(=O)oc2c1C [Compound 68a, N-(7-(3-(ethylamino)propoxy)-8-methyl-2-oxo-2H-chromen-3-yl)-4-hydroxy-3-(3-methylbut-2-en-1-yl)benzamide]

IC50 [1, 14]: 2.19 ± 0.5 µM | IC50 [2, 15]: 0.73 ± 0.06 µM
SMILES: CCN(C)CCCOc1ccc2cc(NC(=O)c3ccc(O)c(CC=C(C)C)c3)c(=O)oc2c1C [Compound 68b, N-(7-(3-(ethyl(methyl)amino)propoxy)-8-methyl-2-oxo-2H-chromen-3-yl)-4-hydroxy-3-(3-methylbut-2-en-1-yl)benzamide]

SMILES: CCN(CC)CCCOc1ccc2cc(NC(=O)c3ccc(O)c(CC=C(C)C)c3)c(=O)oc2c1C [Compound 68c]
IC50 ([1]; Table 4, alkylamino analogues, read-out: MCF-7): 6.39 ± 0.04 µM | IC50 ([2]; Table 4, alkylamino analogues, read-out: SKBr3): 4.9 ± 0.42 µM

IC50 [1, 14]: 0.98 µM | IC50 [2, 15]: 0.99 ± 0.03 µM
SMILES: CCCNCCCOc1ccc2cc(NC(=O)c3ccc(O)c(CC=C(C)C)c3)c(=O)oc2c1C [Compound 68d, 4-hydroxy-N-(8-methyl-2-oxo-7-(3-(propylamino)propoxy)-2H-chromen-3-yl)-3-(3-methylbut-2-en-1-yl)benzamide]

IC50 [1, 14]: 1.32 ± 0.06 µM | IC50 [2, 15]: 1.03 ± 0.02 µM
SMILES: CC(C)=CCc1cc(C(=O)Nc2cc3ccc(OCCCNCC(C)C)c(C)c3oc2=O)ccc1O [Compound 68f, 4-hydroxy-N-(7-(3-(isobutylamino)propoxy)-8-methyl-2-oxo-2H-chromen-3-yl)-3-(3-methylbut-2-en-1-yl)benzamide]

IC50 [1, 14]: 0.74 ± 0.16 µM | IC50 [2, 15]: 0.75 ± 0.26 µM
SMILES: CC(C)=CCc1cc(C(=O)Nc2cc3ccc(OCCCNC(C)C)c(C)c3oc2=O)ccc1O [Compound 68g, 4-hydroxy-N-(7-(3-(isopropylamino)propoxy)-8-methyl-2-oxo-2H-chromen-3-yl)-3-(3-methylbut-2-en-1-yl)benzamide]

IC50 [1, 14]: 1.05 ± 0.06 µM | IC50 [2, 15]: 0.57 ± 0.13 µM
SMILES: CC(C)=CCc1cc(C(=O)Nc2cc3ccc(OCCCN(C)C(C)C)c(C)c3oc2=O)ccc1O [Compound 68h, 4-hydroxy-N-(7-(3-(isopropyl(methyl)amino)propoxy)-8-methyl-2-oxo-2H-chromen-3-yl)-3-(3-methylbut-2-en-1-yl)benzamide]

IC50 [1, 14]: 1.31 ± 0.39 µM | IC50 [2, 15]: 1.6 ± 0.02 µM
SMILES: CC(C)=CCc1cc(C(=O)Nc2cc3ccc(OCCCN(C(C)C)C(C)C)c(C)c3oc2=O)ccc1O [Compound 68i, N-(7-(3-(diisopropylamino)propoxy)-8-methyl-2-oxo-2H-chromen-3-yl)-4-hydroxy-3-(3-methylbut-2-en-1-yl)benzamide]

IC50 [1, 14]: 0.95 ± 0.1 µM | IC50 [2, 15]: 0.66 ± 0.06 µM
SMILES: CC(C)=CCc1cc(C(=O)Nc2cc3ccc(OCCCNC(C)(C)C)c(C)c3oc2=O)ccc1O [Compound 68j, N-(7-(3-(tert-butylamino)propoxy)-8-methyl-2-oxo-2H-chromen-3-yl)-4-hydroxy-3-(3-methylbut-2-en-1-yl)benzamide]

IC50 [1, 14]: 1.14 ± 0.11 µM | IC50 [2, 15]: 0.88 ± 0.1 µM
SMILES: CC(C)=CCc1cc(C(=O)Nc2cc3ccc(OCCCN(C)C(C)(C)C)c(C)c3oc2=O)ccc1O [Compound 68k, N-(7-(3-(tert-butyl(methyl)amino)propoxy)-8-methyl-2-oxo-2H-chromen-3-yl)-4-hydroxy-3-(3-methylbut-2-en-1-yl)benzamide]

IC50 [1, 3]: 1.09 ± 0.1 µM
SMILES: CC(C)=CCc1cc(C(=O)Nc2cc3ccc(OC4CCN(C)CC4)c(C)c3oc2=O)ccc1O [drawing 134]
